Experimental data reported in PubChem BioAssay (NCI).
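The compound was tested at five concentrations on cells cultured in 96-well plates, with a 48-hour exposure period. GI50 = concentration required for 50% inhibition of growth. TGI denotes the concentration required for complete inhibition of growth.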

Assays:
Assay in all cases: NCI tumour cell line growth inhibition, 48 h
ACHN renal = test system: ACHN renal
SK-MEL-2 melanoma = test system: SK-MEL-2 melanoma
HS 578T breast = test system: HS 578T breast
UACC-257 melanoma = test system: UACC-257 melanoma
HOP-92 NSCLC = test system: HOP-92 NSCLC
OVCAR-4 ovarian = test system: OVCAR-4 ovarian
SK-MEL-5 melanoma = test system: SK-MEL-5 melanoma
SK-MEL-28 melanoma = test system: SK-MEL-28 melanoma
MALME-3M melanoma = test system: MALME-3M melanoma
CAKI-1 renal = test system: CAKI-1 renal
NCI-H23 lung = test system: NCI-H23 lung
SW-620 colon = test system: SW-620 colon
KM12 colon = test system: KM12 colon
SN12C renal = test system: SN12C renal
HCC-2998 colon = test system: HCC-2998 colon
HL-60(TB) leukemia = test system: HL-60(TB) leukemia
MDA-MB-435 = test system: MDA-MB-435
UO-31 renal = test system: UO-31 renal
OVCAR-3 ovarian = test system: OVCAR-3 ovarian
OVCAR-8 ovarian = test system: OVCAR-8 ovarian
SR leukemia = test system: SR leukemia
PC-3 prostate = test system: PC-3 prostate
NCI-H460 lung = test system: NCI-H460 lung
CCRF-CEM leukemia = test system: CCRF-CEM leukemia
RPMI-8226 leukemia = test system: RPMI-8226 leukemia
SK-OV-3 ovarian = test system: SK-OV-3 ovarian
T-47D breast = test system: T-47D breast
MDA-MB-468 breast = test system: MDA-MB-468 breast
SF-539 CNS = test system: SF-539 CNS
COLO 205 colon = test system: COLO 205 colon
OVCAR-5 ovarian = test system: OVCAR-5 ovarian
TK-10 renal = test system: TK-10 renal
786-0 renal = test system: 786-0 renal
NCI-H226 lung = test system: NCI-H226 lung
M14 melanoma = test system: M14 melanoma
LOX IMVI melanoma = test system: LOX IMVI melanoma
BT-549 breast = test system: BT-549 breast
DU-145 prostate = test system: DU-145 prostate
UACC-62 melanoma = test system: UACC-62 melanoma
HT29 colon = test system: HT29 colon
MDA-MB-231 breast = test system: MDA-MB-231 breast
HCT-15 colon = test system: HCT-15 colon
IGROV1 ovarian = test system: IGROV1 ovarian

**Q.** For CN(C)CCCNC(=S)Nc1ccc(/C=C/c2ccc(Cl)cc2)cc1, which GI50 (ACHN renal) is on record?
**A.** 1780 nM

**Q.** What about the TGI (ACHN renal) of the same molecule?
**A.** 3190 nM

**Q.** What about the GI50 (SK-MEL-2 melanoma) of the same molecule?
**A.** 1870 nM

**Q.** What about the TGI (SK-MEL-2 melanoma) of the same molecule?
**A.** 3570 nM

**Q.** And the GI50 (HS 578T breast)?
**A.** 1860 nM

**Q.** What about the TGI (HS 578T breast) of the same molecule?
**A.** 4520 nM

**Q.** What about the GI50 (UACC-257 melanoma) of the same molecule?
**A.** 1640 nM

**Q.** What about the TGI (UACC-257 melanoma) of the same molecule?
**A.** 3240 nM

**Q.** What about the GI50 (HOP-92 NSCLC) of the same molecule?
**A.** 1350 nM

**Q.** And the TGI (HOP-92 NSCLC)?
**A.** 2990 nM

**Q.** And the GI50 (OVCAR-4 ovarian)?
**A.** 1920 nM

**Q.** And the TGI (OVCAR-4 ovarian)?
**A.** 4350 nM

**Q.** What about the GI50 (SK-MEL-5 melanoma) of the same molecule?
**A.** 1720 nM

**Q.** And the TGI (SK-MEL-5 melanoma)?
**A.** 3090 nM

**Q.** What about the GI50 (SK-MEL-28 melanoma) of the same molecule?
**A.** 1790 nM

**Q.** And the TGI (SK-MEL-28 melanoma)?
**A.** 3200 nM

**Q.** What about the GI50 (MALME-3M melanoma) of the same molecule?
**A.** 1750 nM

**Q.** And the TGI (MALME-3M melanoma)?
**A.** 3140 nM

**Q.** What about the GI50 (CAKI-1 renal) of the same molecule?
**A.** 1540 nM

**Q.** What about the TGI (CAKI-1 renal) of the same molecule?
**A.** 2960 nM

**Q.** What about the GI50 (NCI-H23 lung) of the same molecule?
**A.** 2020 nM

**Q.** And the TGI (NCI-H23 lung)?
**A.** 4440 nM

**Q.** And the GI50 (SW-620 colon)?
**A.** 1670 nM

**Q.** What about the TGI (SW-620 colon) of the same molecule?
**A.** 3140 nM

**Q.** What about the GI50 (KM12 colon) of the same molecule?
**A.** 1820 nM

**Q.** What about the TGI (KM12 colon) of the same molecule?
**A.** 3400 nM

**Q.** And the GI50 (SN12C renal)?
**A.** 1680 nM

**Q.** And the TGI (SN12C renal)?
**A.** 3130 nM

**Q.** What about the GI50 (HCC-2998 colon) of the same molecule?
**A.** 1640 nM

**Q.** What about the TGI (HCC-2998 colon) of the same molecule?
**A.** 3140 nM

**Q.** What about the GI50 (HL-60(TB) leukemia) of the same molecule?
**A.** 1670 nM

**Q.** And the TGI (HL-60(TB) leukemia)?
**A.** 3930 nM

**Q.** And the GI50 (MDA-MB-435)?
**A.** 1580 nM

**Q.** And the TGI (MDA-MB-435)?
**A.** 3060 nM

**Q.** And the GI50 (UO-31 renal)?
**A.** 1580 nM

**Q.** What about the TGI (UO-31 renal) of the same molecule?
**A.** 2940 nM

**Q.** What about the GI50 (OVCAR-3 ovarian) of the same molecule?
**A.** 1440 nM

**Q.** What about the TGI (OVCAR-3 ovarian) of the same molecule?
**A.** 3110 nM

**Q.** What about the GI50 (OVCAR-8 ovarian) of the same molecule?
**A.** 1980 nM

**Q.** And the TGI (OVCAR-8 ovarian)?
**A.** 4100 nM

**Q.** What about the GI50 (SR leukemia) of the same molecule?
**A.** 1940 nM

**Q.** What about the TGI (SR leukemia) of the same molecule?
**A.** 5100 nM

**Q.** What about the GI50 (PC-3 prostate) of the same molecule?
**A.** 1640 nM

**Q.** What about the TGI (PC-3 prostate) of the same molecule?
**A.** 3240 nM

**Q.** What about the GI50 (NCI-H460 lung) of the same molecule?
**A.** 1540 nM

**Q.** And the TGI (NCI-H460 lung)?
**A.** 3010 nM

**Q.** And the GI50 (CCRF-CEM leukemia)?
**A.** 1630 nM

**Q.** What about the TGI (CCRF-CEM leukemia) of the same molecule?
**A.** 3430 nM

**Q.** What about the GI50 (RPMI-8226 leukemia) of the same molecule?
**A.** 2550 nM

**Q.** What about the TGI (RPMI-8226 leukemia) of the same molecule?
**A.** 7330 nM

**Q.** What about the GI50 (SK-OV-3 ovarian) of the same molecule?
**A.** 2030 nM

**Q.** What about the TGI (SK-OV-3 ovarian) of the same molecule?
**A.** 4160 nM

**Q.** What about the GI50 (T-47D breast) of the same molecule?
**A.** 1880 nM

**Q.** What about the TGI (T-47D breast) of the same molecule?
**A.** 4100 nM

**Q.** What about the GI50 (MDA-MB-468 breast) of the same molecule?
**A.** 1640 nM

**Q.** And the TGI (MDA-MB-468 breast)?
**A.** 3070 nM

**Q.** What about the GI50 (SF-539 CNS) of the same molecule?
**A.** 1680 nM

**Q.** What about the TGI (SF-539 CNS) of the same molecule?
**A.** 3050 nM

**Q.** And the GI50 (COLO 205 colon)?
**A.** 1880 nM

**Q.** And the TGI (COLO 205 colon)?
**A.** 3640 nM

**Q.** What about the GI50 (OVCAR-5 ovarian) of the same molecule?
**A.** 1610 nM

**Q.** What about the TGI (OVCAR-5 ovarian) of the same molecule?
**A.** 3090 nM

**Q.** What about the GI50 (TK-10 renal) of the same molecule?
**A.** 1870 nM

**Q.** And the TGI (TK-10 renal)?
**A.** 3560 nM

**Q.** What about the GI50 (786-0 renal) of the same molecule?
**A.** 1620 nM

**Q.** What about the TGI (786-0 renal) of the same molecule?
**A.** 3360 nM

**Q.** And the GI50 (NCI-H226 lung)?
**A.** 8410 nM

**Q.** What about the TGI (NCI-H226 lung) of the same molecule?
**A.** 38200 nM

**Q.** And the GI50 (M14 melanoma)?
**A.** 1770 nM

**Q.** And the TGI (M14 melanoma)?
**A.** 3620 nM

**Q.** And the GI50 (LOX IMVI melanoma)?
**A.** 1640 nM

**Q.** What about the TGI (LOX IMVI melanoma) of the same molecule?
**A.** 3090 nM

**Q.** And the GI50 (BT-549 breast)?
**A.** 2890 nM

**Q.** And the TGI (BT-549 breast)?
**A.** 8870 nM

**Q.** And the GI50 (DU-145 prostate)?
**A.** 1750 nM

**Q.** What about the TGI (DU-145 prostate) of the same molecule?
**A.** 3330 nM

**Q.** And the GI50 (UACC-62 melanoma)?
**A.** 1750 nM

**Q.** What about the TGI (UACC-62 melanoma) of the same molecule?
**A.** 3170 nM

**Q.** What about the GI50 (HT29 colon) of the same molecule?
**A.** 2140 nM

**Q.** And the TGI (HT29 colon)?
**A.** 4720 nM

**Q.** What about the GI50 (MDA-MB-231 breast) of the same molecule?
**A.** 1620 nM

**Q.** And the TGI (MDA-MB-231 breast)?
**A.** 3030 nM

**Q.** And the GI50 (HCT-15 colon)?
**A.** 1530 nM

**Q.** And the TGI (HCT-15 colon)?
**A.** 3030 nM

**Q.** And the GI50 (IGROV1 ovarian)?
**A.** 1780 nM

**Q.** And the TGI (IGROV1 ovarian)?
**A.** 3310 nM
